Numbers after ± are expanded uncertainties.
Details: 298.15 K; 101.33 kPa; Liquid; Vibrating tube method

mass density: 1387.07 ± 2.2 kg/m3
Structure (SMILES): CCn1cc[n+](C)c1.O=S(=O)([O-])C(F)(F)F [1-ethyl-3-methylimidazolium trifluoromethanesulfonate]

Reference: the NIST ThermoML archive (doi:10.1016/j.jct.2009.07.010)
